According to PubChem BioAssay (NCI):
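1) Cells in 96-well plates. 2) Compound, 48 h, 5 concentrations. 3) Linear interpolation between surrounding doses. 4) Unreached endpoint = highest concentration. TGI: total growth inhibition.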

Experiments:
Experiment in all cases: NCI-60 cell line screen, 48 h
[1] = system: A498 renal
[2] = system: CAKI-1 renal
[3] = system: COLO 205 colon
[4] = system: DU-145 prostate
[5] = system: HCT-116 colon
[6] = system: HL-60(TB) leukemia
[7] = system: HOP-92 NSCLC
[8] = system: K-562 leukemia
[9] = system: LOX IMVI melanoma
[10] = system: MALME-3M melanoma
[11] = system: MDA-MB-231 breast
[12] = system: MDA-MB-435
[13] = system: MDA-N
[14] = system: OVCAR-3 ovarian
[15] = system: RPMI-8226 leukemia
[16] = system: RXF 393 renal
[17] = system: SK-OV-3 ovarian
[18] = system: SR leukemia
[19] = system: TK-10 renal
[20] = system: UACC-62 melanoma

Measured: TGI

C[Si](C)(C)C1=C2C(=O)c3ccccc3C(=O)C2=C([Si](C)(C)C)[C@@H]2CCCC[C@H]12
> 100 µM: all assays above
